Patent publication US7205295B2, “Benzoxazin-3-ones and derivatives thereof as therapeutic agents” (Warner-Lambert Company LLC, priority 2002, dated 2007)

Biological target: T1, PI3Kγ (p101/p110γ protein) (Homo sapiens, UniProt P48736)
T1 construct: HA; made in house; host or cells: Spodoptera frugiperda (Sf9) cells, baculovirus co-infection
Assay: PI3Kγ In Vitro Kinase Assay
Type: biochemical
Conditions: purified recombinant p101/p110γ with G protein β1/γ2 subunits; 20 μM ATP, 25 μM PIP2; 20 minutes at room temperature
Protocol: Spodtera frugiperda cells, grown in ESF921 media, were coinfected with baculovirus expressing a glu-tagged p101 and baculovirus expressing an HA-tagged p110γ, at a 3:1 ratio of p101 baculovirus to p110γ baculovirus. Sf9 cells were grown to 1×10^7 total cells/mL in 10L bioreactors and harvested 48-72 hours post infection. Samples of infected cells were then tested for expression of p101/p110γ PI3 kinase by immunoprecipitation and Western Blot analysis methods (see below). […] NaCl was added to 150 mM, and sodium cholate was added to 1% and mixed for another 45 minutes. The lysates were clarified by centrifugation for 25 minutes at 14,000 rpm. The lysates were then loaded over anti-glu-linked Protein-G Sepaharose beads (Covance Research Products, Richmond, Calif.) using 20 mL resin/50 g cell paste. […] PI3Kγ was eluted with 6 column volumes of wash buffer that contain 100 μg/mL of a peptide that competes for binding of the glu tag. […] The fractions were stored at -80° C. until further use. Spodtera frugiperda cells were coinfected with baculovirus expressing a glu-tagged G protein β1 and baculovirus expressing a G protein […] at a 1:1 ratio of glu-tagged G protein β1 baculovirus to G protein β2 baculovirus. Sf9 cells are grown in 10 L bioreactors and harvested 48-72 hours post infection. Samples of infected cells were tested for G protein β1/β2 expression by Western Blot analysis, as described below. Cell lysates were homogenized and loaded onto a column of glu-tagged beads as in Biological Example 1 and competed off the column with a glu peptide as described in Biological Example 1. The inhibitory properties of the compounds in Table 1 were assayed in an in vitro PI3K assay. In a 96-well polypropylene plate, each well was spotted with 2 μL of […] the desired final concentration of compound in DMSO. Purified recombinant p101/p110γ protein (0.03 μg; 2.7 nM) and G protein β1/γ2 subunits (0.09 μg; 57.7 nM) for each reaction was combined in the assay buffer (30 mM HEPES, 100 mM NaCl, 1 mM EGTA, and 1 mM DTT). ATP and [γ-^32P-ATP] (0.09 μCi) were added to this mixture so that the final ATP concentration in the reaction was 20 μM. Lipid micelles were formed by sonicating phosphatidylinositol-4,5-diphosphate (PIP2), phosphatidylethanolamine (PE), and Na-cholate in the assay buffer for 10 minutes, adding MgCL2 and incubating on ice for 20 minutes, for final concentrations of 25 μM PIP2, 300 [M PE, 0.02% Na-cholate, and 10 mM MgCl2 in the reaction. The reactions were started by adding equal volumes lipid and enzyme mixture in a total volume of 50 μL, allowed to run for 20 minutes at room temperature, and stopped with 100 μL 75 mM H3PO4. The lipid product was transferred to a glass fiber filter plate and washed with 75 mM H3PO4 several times. The presence of radioactive lipid product (PIP3) was measured by adding Wallac Optiphase mix to each well and counting in a Wallac 1450 Trilux plate reader (PerkinElmer Life Sciences Inc., Boston, Mass. 02118).

T1 sequence (P48736 whole entry, species assumed): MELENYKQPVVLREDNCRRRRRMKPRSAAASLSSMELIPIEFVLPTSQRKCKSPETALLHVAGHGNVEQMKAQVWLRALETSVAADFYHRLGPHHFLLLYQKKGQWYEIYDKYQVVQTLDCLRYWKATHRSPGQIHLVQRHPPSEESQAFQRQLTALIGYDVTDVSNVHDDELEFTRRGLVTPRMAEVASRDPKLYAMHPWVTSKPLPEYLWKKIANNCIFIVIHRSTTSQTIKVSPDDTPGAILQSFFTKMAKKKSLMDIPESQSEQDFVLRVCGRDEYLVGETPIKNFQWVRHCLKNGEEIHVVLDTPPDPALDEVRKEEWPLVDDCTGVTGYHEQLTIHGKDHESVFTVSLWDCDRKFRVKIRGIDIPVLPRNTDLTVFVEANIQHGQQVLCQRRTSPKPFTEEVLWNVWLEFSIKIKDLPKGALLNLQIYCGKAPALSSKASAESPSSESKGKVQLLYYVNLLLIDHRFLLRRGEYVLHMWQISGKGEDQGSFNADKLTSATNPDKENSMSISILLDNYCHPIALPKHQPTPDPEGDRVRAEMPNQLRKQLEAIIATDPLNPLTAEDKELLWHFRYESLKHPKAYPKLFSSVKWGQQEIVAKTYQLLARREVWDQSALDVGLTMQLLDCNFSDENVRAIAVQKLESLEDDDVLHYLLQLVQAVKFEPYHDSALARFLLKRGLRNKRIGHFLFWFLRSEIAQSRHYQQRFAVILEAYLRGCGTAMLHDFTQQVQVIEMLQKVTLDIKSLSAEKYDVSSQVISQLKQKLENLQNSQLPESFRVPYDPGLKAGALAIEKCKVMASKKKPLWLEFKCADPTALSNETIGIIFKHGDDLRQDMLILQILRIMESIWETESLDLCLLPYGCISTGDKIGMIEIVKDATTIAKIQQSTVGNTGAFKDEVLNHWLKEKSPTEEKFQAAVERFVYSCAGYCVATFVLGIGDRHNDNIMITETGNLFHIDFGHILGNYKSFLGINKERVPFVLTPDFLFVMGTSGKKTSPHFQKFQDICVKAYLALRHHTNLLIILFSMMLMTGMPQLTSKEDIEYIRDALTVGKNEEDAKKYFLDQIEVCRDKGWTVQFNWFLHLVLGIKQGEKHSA
T1 sequence (Q8WYR1 whole entry partner, species assumed): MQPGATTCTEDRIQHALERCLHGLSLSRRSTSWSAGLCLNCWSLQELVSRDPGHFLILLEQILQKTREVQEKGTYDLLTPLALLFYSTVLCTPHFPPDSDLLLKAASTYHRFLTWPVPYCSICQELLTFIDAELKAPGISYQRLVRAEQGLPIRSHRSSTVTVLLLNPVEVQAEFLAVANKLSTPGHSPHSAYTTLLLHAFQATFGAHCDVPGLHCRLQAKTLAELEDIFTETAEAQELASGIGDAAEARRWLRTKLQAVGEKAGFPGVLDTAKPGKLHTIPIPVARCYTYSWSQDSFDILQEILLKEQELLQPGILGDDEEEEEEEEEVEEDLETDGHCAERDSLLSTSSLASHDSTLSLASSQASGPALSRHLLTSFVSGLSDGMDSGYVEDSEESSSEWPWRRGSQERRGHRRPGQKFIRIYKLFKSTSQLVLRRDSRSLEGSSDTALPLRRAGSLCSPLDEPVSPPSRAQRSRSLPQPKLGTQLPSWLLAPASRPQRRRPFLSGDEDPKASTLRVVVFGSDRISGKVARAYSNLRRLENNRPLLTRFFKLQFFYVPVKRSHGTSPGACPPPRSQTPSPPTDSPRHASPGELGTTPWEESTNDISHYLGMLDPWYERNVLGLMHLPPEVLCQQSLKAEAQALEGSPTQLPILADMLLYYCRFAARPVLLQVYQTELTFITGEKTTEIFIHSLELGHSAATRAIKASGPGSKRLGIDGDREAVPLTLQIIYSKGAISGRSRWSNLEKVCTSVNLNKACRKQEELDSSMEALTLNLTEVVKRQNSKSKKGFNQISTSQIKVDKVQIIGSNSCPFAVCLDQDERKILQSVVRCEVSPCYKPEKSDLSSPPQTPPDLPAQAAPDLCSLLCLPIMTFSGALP

Compound	IC50 [nM]
COc1cc(C=C2SC(=S)NC2=O)cc2c1OCC(=O)N2Cc1ccccc1 [Example 153, 4-Benzyl-8-methoxy-6-(4-oxo-2-thioxo-thiazolidin-5-ylidenemethyl)-4H-benzo[1,4]oxazin-3-one]	96
Cc1ccc(CN2C(=O)COc3ccc(C=C4SC(=S)NC4=O)cc32)c(C)c1 [Example 100, 4-(2,4-Dimethyl-benzyl)-6-(4-oxo-2-thioxo-thiazolidin-5-ylidenemethyl)-4H-1,4-benzoxazin-3-one]	5
O=C1COc2ccc(C=C3OC(=O)NC3=O)cc2N1 [Example 203, 5-(3-Oxo-3,4-dihydro-2H-1,4-benzoxazin-6-ylmethylene)-oxazolidine-2,4-dione]	175
CS(=O)(=O)c1ccc(Cn2c(=O)oc3ccc(C=C4SC(=S)NC4=O)cc32)cc1 [Example 291, 3-(4-Methanesulfonyl-benzyl)-5-(4-oxo-2-thioxo-thiazolidin-5-ylidenemethyl)-3H-benzoxazol-2-one; Compound with Ethane-1,2-diamine]	433
Cc1cc(C=C2SC(=S)NC2=O)cc2c1OCC(=O)N2CCc1ccc(Cl)c(Cl)c1 [Example 112, 4-[2-(3,4-dichloro-phenyl)-ethyl]-8-methyl-6-(4-oxo-2-thioxo-thiazolidin-5-ylidenmethyl)-4H-benzo[1,4]oxazin-3-one]	22
Cc1cc(CN2C(=O)COc3ccc(C=C4SC(=S)NC4=O)cc32)nn1C [Example 329, 4-(1,5-Dimethyl-1H-pyrazol-3-ylmethyl)-6-(4-oxo-2-thioxo-thiazolidin-5-ylidenemethyl)-4H-1,4-benzoxazin-3-one]	28
CC(C)(C)c1cc(C(C)(C)C)nc(CN2C(=O)COc3c(F)cc(CC4SC(=S)NC4=O)cc32)n1 (stereo not drawn) [Example 235, 4-(4,6-Di-tert-butyl-pyrimidin-2-ylmethyl)-8-fluoro-6-(4-oxo-2-thioxo-thazolidin-5-ylmethyl)-4H-benzo[1,4]oxazin-3-one]	1240
Cc1cc(CN2C(=O)COc3ccc(C=C4SC(=S)NC4=O)cc32)ccc1F [Example 306, 4-(4-Fluoro-3-methyl-benzyl)-6-(4-oxo-2-thioxo-thiazolidin-5-ylidenemethyl)-4H-benzo[1,4]oxazin-3-one]	1
CC(C)(C)c1cc(C(C)(C)C)nc(CN2C(=O)COc3ccc(CC4SC(=S)NC4=O)cc32)n1 (stereo not drawn) [Example 234, 4-(4,6-Di-tert-butyl-pyrimidin-2-ylmethyl)-6-(4-oxo-2-thioxo-thazolidin-5-ylmethyl)-4H-benzo[1,4]oxazin-3-one]	2070
CS(=O)(=O)c1ccc(CN2C(=O)COc3c(F)cc(/C=C4\SC(=S)NC4=O)cc32)cc1 [Example 289, 8-Fluoro-4-(4-methanesulfonyl-benzyl)-6-[4-oxo-2-thioxo-thiazolidin-(5Z)-ylidenemethyl]-4H-benzo[1,4]oxazin-3-one; Compound with Ethane-1,2-diamine]	10
O=C1NC(=S)SC1=Cc1ccc2c(c1)N(Cc1ccc(CN3CCN(c4ccccc4)CC3)cc1)C(=O)CO2 [Example 35, 6-(4-Oxo-2-thioxo-thiazolidin-5-ylidenemethyl)-4-[4-(4-phenyl-piperazin-1-ylmethyl)-benzyl]-4H-1,4-benzoxazin-3-one]	12
CC(C)(C)c1cc(CN2CCOCC2)cc(CN2C(=O)COc3ccc(/C=C4\SC(=S)NC4=O)cc32)c1 [Example 278, 4-(3-tert-Butyl-5-morpholin-4-ylmethyl-benzyl)-6-[4-oxo-2-thioxo-thiazolidin-(5Z)-ylidenemethyl]-4H-benzo[1,4]oxazin-3-one]	7
CC(C)(C)c1cc(CN2C(=O)COc3ccc(C=C4SC(=S)NC4=O)cc32)cc(C(=O)N2CCOCC2)c1 [Example 275, 4-[3-tert-Butyl-5-(morpholine-4-carbonyl)-benzyl]-6-(4-oxo-2-thioxo-thiazolidin-5-ylidenemethyl)-4H-1,4-benzoxazin-3-one; compound with ethane-1,2-diamine]	25
COc1c(CN2C(=O)COc3ccc(C=C4SC(=S)NC4=O)cc32)cccc1C(C)C [Example 260, 4-(3-Isopropyl-2-methoxy-benzyl)-6-(4-oxo-2-thioxo-thiazolidin-5-ylidenemethyl)-4H-1,4-benzoxazin-3-one]	4
O=C1NC(=S)S/C1=C\c1ccc2oc(=O)n(Cc3ccc(Cl)c(Cl)c3)c2c1 [Example 286, 3-(3,4-Dichloro-benzyl)-5-[4-oxo-2-thioxo-thiazolidin-(5Z)-ylidenemethyl]-3H-benzooxazol-2-one]	220
8-Fluoro-4-(3-morpholin-4-yl-propyl)-6-(4-oxo-2-thioxo-thiazolidin-5-ylidenemethyl)-4H-benzo[1,4]oxazin-3-one [Example 242]	55
O=C1NC(=S)SC1=Cc1ccc2c(c1)N(Cc1ccc(Oc3cccc4ccccc34)cc1)C(=O)CO2 [Example 25, 4-[4-(Naphthalen-1-yloxy)-benzyl]-6-(4-oxo-2-thioxo-thiazolidin-5-ylidenemethyl)-4H-1,4-benzoxazin-3-one]	8
CC(C)(O)c1ccc(CN2C(=O)COc3c(F)cc(C=C4SC(=S)NC4=O)cc32)cc1 [Example 294, 8-Fluoro-4-[4-(1-hydroxy-1-methyl-ethyl)-benzyl]-6-(4-oxo-2-thioxo-thiazolidin-5-ylidenemethyl)-4H-benzo[1,4]oxazin-3-one]	3
CC(C)(C)OC(=O)N1CCN(Cc2ccc(CN3C(=O)COc4ccc(C=C5SC(=O)NC5=O)cc43)cc2)CC1 [Example 75, 4-{4-[6-(2,4-dioxo-thiazolidin-5-ylidenemethyl)-3-oxo-2,3-dihydro-1,4-benzoxazin-4-ylmethyl]-benzyl}-piperazine-1-carboxylic acid tert-butyl ester]	155
Cc1cc(CN2CCN(C)CC2)cc(CN2C(=O)COc3ccc(C=C4SC(=S)NC4=O)cc32)c1 [Example 255, 4-[3-Methyl-5-(4-methyl-piperazin-1-ylmethyl)-benzyl]-6-(4-oxo-2-thioxo-thiazolidin-5-ylidenemethyl)-4H-1,4-benzoxazin-3-one]	15
COc1cc(CN2C(=O)COc3ccc(C=C4SC(=S)NC4=O)cc32)cc(Cl)n1 [Example 205, 4-(2-Chloro-6-methoxy-pyridin-4-ylmethyl)-6-(4-oxo-2-thioxo-thiazolidin-5-ylidenemethyl)-4H-benzo[1,4]oxazin-3-one]	32
O=C1NC(=S)SC1=Cc1ccc2c(c1)N(Cc1ccc(OCc3ccccc3)cc1)C(=O)CO2 [Example 163, 4-(4-Benzyloxy-benzyl)-6-(4-oxo-2-thioxo-thiazolidin-5-ylidenemethyl)-4H-1,4-benzoxazin-3-one]	30
O=C(O)CN1C(=O)C(=Cc2ccc3c(c2)NC(=O)CO3)SC1=S [Example 10, [4-Oxo-5-(3-oxo-3,4-dihydro-2H-1,4-benzoxazin-6-ylmethylene)-2-thioxo-thiazolidin-3-yl]-acetic acid; compound with trifluoro-acetic acid]	3630
CC(C)(C)c1cc(CN2C(=O)COc3c(Cl)cc(C=C4SC(=S)NC4=O)cc32)cc(C(C)(C)C)c1 [Example 47, 8-Chloro-4-(3,5-di-tert-butyl-benzyl)-6-(4-oxo-2-thioxo-thiazolidin-5-ylidenemethyl)-4H-1,4-benzoxazin-3-one]	320
O=C1NC(=S)SC1=Cc1ccc2c(c1)N(Cc1ccccc1CO)C(=O)CO2 [Example 24, 4-(2-Hydroxymethyl-benzyl)-6-(4-oxo-2-thioxo-thiazolidin-5-ylidenemethyl)-4H-1,4-benzoxazin-3-one]	3
CC(C)(C)c1ccc(CN2C(=O)COc3ccc(C=C4SC(=S)NC4=O)cc32)cc1 [Example 36, 4-(4-tert-Butyl-benzyl)-6-(4-oxo-2-thioxo-thiazolidin-5-ylidenemethyl)-4H-1,4-benzoxazin-3-one]	2
O=C1NC(=S)SC1=Cc1ccc2c(c1)N(Cc1ccccc1-c1ccccc1)C(=O)CO2 [Example 159, 4-Biphenyl-2-ylmethyl-6-(4-oxo-2-thioxo-thiazolidin-5-ylidenemethyl)-4H-1,4-benzoxazin-3-one]	10
